Patent publication US12303497B2, “Anti-androgens for the treatment of metastatic castration-sensitive prostate cancer” (priority 2019, dated 2025)
Where two headings read alike, the source gives them in different places.

System: patients with metastatic castration-sensitive prostate cancer (mCSPC)

CNC(=O)c1ccc(N2C(=S)N(c3cnc(C#N)c(C(F)(F)F)c3)C(=O)C23CCC3)cc1F [Apalutamide, 4-[7-(6-cyano-5-trifluoromethylpyridin-3-yl)-8-oxo-6-thioxo-5,7-diazaspiro[3.4]oct-5-yl]-2-fluoro-N-methylbenzamide]
1.3%: Grade ≥3 rash led to discontinuation (7 patients)
34 (6.5) no. (%): AE of special interest: Hypothyroidism (grouped term) (All Grades) | TEAE: Bone pain (All Grades) | TEAE: Rash generalized (All Grades)
44 (8.4) no. (%): AE leading to dose interruption: Rash (grouped term) (All Grades)
1 (0.2) no. (%): AE leading to discontinuation: Anxiety (All Grades) | AE leading to discontinuation: Atrial fibrillation (All Grades) | AE leading to discontinuation: Cardio-respiratory arrest (All Grades) | AE leading to discontinuation: Cardiogenic shock (All Grades) | AE leading to discontinuation: Cerebrovascular disorder (All Grades) | AE leading to discontinuation: Dehydration (All Grades) | AE leading to discontinuation: Euphoric mood (All Grades) | AE leading to discontinuation: Hot flush (All Grades) | AE leading to discontinuation: Infections (All Grades) | AE leading to discontinuation: Large intestinal ulcer perforation (All Grades) | AE leading to discontinuation: Lip swelling (All Grades) | AE leading to discontinuation: Parkinson's disease (All Grades) | AE leading to discontinuation: Pulmonary embolism (All Grades) | AE leading to discontinuation: Radiculopathy (All Grades) | AE leading to discontinuation: Sudden cardiac death (All Grades) | AE leading to dose interruption: Acute kidney injury (All Grades) | AE leading to dose interruption: Acute respiratory failure (All Grades) | AE leading to dose interruption: Allergy to chemicals (All Grades) | AE leading to dose interruption: Atrial fibrillation (All Grades) | AE leading to dose interruption: Blood alkaline phosphatase increased (All Grades) | AE leading to dose interruption: Cardiac failure congestive (All Grades) | AE leading to dose interruption: Cerebrovascular accident (All Grades) | AE leading to dose interruption: Cheilitis (All Grades) | AE leading to dose interruption: Chronic hepatitis (All Grades) | AE leading to dose interruption: Cognitive disorder (All Grades) | AE leading to dose interruption: Confusional state (All Grades) | AE leading to dose interruption: Constipation (All Grades) | AE leading to dose interruption: Depression (All Grades) | AE leading to dose interruption: Diabetes mellitus (All Grades) | AE leading to dose interruption: Diarrhea (All Grades) | AE leading to dose interruption: Dizziness (All Grades) | AE leading to dose interruption: Dyspnea (All Grades) | AE leading to dose interruption: Dysuria (All Grades) | AE leading to dose interruption: Edema (All Grades) | AE leading to dose interruption: Eyelid edema (All Grades) | AE leading to dose interruption: Facial edema (All Grades) | AE leading to dose interruption: Fall (All Grades) | AE leading to dose interruption: Febrile neutropenia (All Grades) | AE leading to dose interruption: Gamma-glutamyltransferase increased (All Grades) | AE leading to dose interruption: Gastric ulcer perforation (All Grades) | AE leading to dose interruption: General physical health deterioration (All Grades) | AE leading to dose interruption: Hallucination (All Grades) | AE leading to dose interruption: Headache (All Grades) | AE leading to dose interruption: Hematoma (All Grades) | AE leading to dose interruption: Hemorrhage intracranial (All Grades) | AE leading to dose interruption: Hemorrhagic erosive gastritis (All Grades) | AE leading to dose interruption: Hepatic cirrhosis (All Grades) | AE leading to dose interruption: Hip fracture (All Grades) | AE leading to dose interruption: Hot flush (All Grades) | AE leading to dose interruption: Hyperbilirubinemia (All Grades) | AE leading to dose interruption: Hypersensitivity (All Grades) | AE leading to dose interruption: Hypokalemia (All Grades) | AE leading to dose interruption: Hyponatremia (All Grades) | AE leading to dose interruption: Influenza-like illness (All Grades) | AE leading to dose interruption: Ischemic cardiac events (All Grades) | AE leading to dose interruption: Large intestinal ulcer perforation (All Grades) | AE leading to dose interruption: Mental status changes (All Grades) | AE leading to dose interruption: Muscular weakness (All Grades) | AE leading to dose interruption: Nausea (All Grades) | AE leading to dose interruption: Osteoporosis (All Grades) | AE leading to dose interruption: Peripheral edema (All Grades) | AE leading to dose interruption: Proctalgia (All Grades) | AE leading to dose interruption: Rheumatoid arthritis (All Grades) | AE leading to dose interruption: Seizure (All Grades) | AE leading to dose interruption: Spinal cord compression (All Grades) | AE leading to dose interruption: Stomatitis (All Grades) | AE leading to dose interruption: Subarachnoid hematoma (All Grades) | AE leading to dose interruption: Subarachnoid hemorrhage (All Grades) | AE leading to dose interruption: Syncope (All Grades) | AE leading to dose interruption: Thrombocytopenia (All Grades) | AE leading to dose interruption: Tongue ulceration (All Grades) | AE leading to dose interruption: Urinary incontinence (All Grades) | AE leading to dose interruption: Urinary tract obstruction (All Grades) | AE leading to dose interruption: Vertigo (All Grades) | AE leading to dose reduction: Cognitive disorder (All Grades) | AE leading to dose reduction: Dehydration (All Grades) | AE leading to dose reduction: General physical health deterioration (All Grades) | AE leading to dose reduction: Headache (All Grades) | AE leading to dose reduction: Hot flush (All Grades) | AE leading to dose reduction: Hypertension (All Grades) | AE leading to dose reduction: Pain (All Grades) | AE leading to dose reduction: Vertigo (All Grades) | AE leading to dose reduction: Weight decreased (All Grades) | AE leading to discontinuation: Atrial fibrillation (Grade ≥3) | AE leading to discontinuation: Cardio-respiratory arrest (Grade ≥3) | AE leading to discontinuation: Cardiogenic shock (Grade ≥3) | AE leading to discontinuation: Cerebrovascular disorder (Grade ≥3) | AE leading to discontinuation: Fatigue (Grade ≥3) | AE leading to discontinuation: Infections (Grade ≥3) | AE leading to discontinuation: Large intestinal ulcer perforation (Grade ≥3)
39 (7.4) no. (%): AE of special interest: Fall (All Grades)
93 (17.7) no. (%): TEAE: Hypertension (All Grades)
2 (0.4) no. (%): AE leading to discontinuation: Ischemic cardiac events (All Grades) | AE leading to discontinuation: Seizure (All Grades) | AE leading to dose interruption: Anemia (All Grades) | AE leading to dose interruption: Anxiety (All Grades) | AE leading to dose interruption: Arthralgia (All Grades) | AE leading to dose interruption: Chronic obstructive pulmonary disease (All Grades) | AE leading to dose interruption: Decreased appetite (All Grades) | AE leading to dose interruption: Hematuria (All Grades) | AE leading to dose interruption: Hypertriglyceridemia (All Grades) | AE leading to dose interruption: Neutropenia (All Grades) | AE leading to dose interruption: Urinary retention (All Grades) | AE leading to dose reduction: Fatigue (All Grades) | AE leading to dose reduction: Neutropenia (All Grades) | AE leading to discontinuation: Ischemic cardiac events (Grade ≥3)
91 (17.4) no. (%): TEAE: Arthralgia (All Grades) | TEAE: Back pain (All Grades)
142 (27.1) no. (%): AE of special interest: Rash (grouped term) (All Grades)
103 (19.7) no. (%): TEAE: Fatigue (All Grades)
2.3%: Skin rash led to treatment discontinuation (12 patients)
8.0%: Adverse events led to discontinuation (42 patients)
6 (1.1) no. (%): AE leading to dose interruption: Fatigue (All Grades) | AE leading to dose interruption: Hypertension (All Grades) | AE leading to dose interruption: Infections (All Grades)
16 (3.1) no. (%): TEAE: Blood alkaline phosphatase increased (All Grades)
64 (12.2) no. (%): TEAE: Pain in extremity (All Grades)
5.3%: Skin rash led to dose reduction (28 patients)
7 (1.3) no. (%): AE leading to discontinuation: New cancer neoplasm (All Grades) | AE leading to dose interruption: Aspartate aminotransferase or alanine aminotransferase increased (All Grades)
8.4%: Skin rash led to dose interruption (44 patients)
4 (0.8) no. (%): AE leading to discontinuation: Fatigue (All Grades)
33 (6.3) no. (%): AE of special interest: Fracture (grouped term) (All Grades)
0 no. (%): AE leading to discontinuation: Alanine aminotransferase increased (All Grades) | AE leading to discontinuation: Cardiac failure (All Grades) | AE leading to discontinuation: Cognitive disorder (All Grades) | AE leading to discontinuation: Dyspnea (All Grades) | AE leading to discontinuation: Hypothermia (All Grades) | AE leading to discontinuation: Intracranial hemorrhage (All Grades) | AE leading to discontinuation: Loss of consciousness (All Grades) | AE leading to discontinuation: Pleural effusion (All Grades) | AE leading to discontinuation: Pulmonary edema (All Grades) | AE leading to discontinuation: Respiratory failure (All Grades) | AE leading to discontinuation: Subdural hemorrhage (All Grades) | AE leading to discontinuation: Sudden death (All Grades) | AE leading to discontinuation: Suicide (All Grades) | AE leading to dose interruption: Angina unstable (All Grades) | AE leading to dose interruption: Bile duct obstruction (All Grades) | AE leading to dose interruption: Cardiac amyloidosis (All Grades) | AE leading to dose interruption: Cardiac disorder (All Grades) | AE leading to dose interruption: Cardiac failure (All Grades) | AE leading to dose interruption: Dehydration (All Grades) | AE leading to dose interruption: Diplegia (All Grades) | AE leading to dose interruption: Gastritis (All Grades) | AE leading to dose interruption: Hepatic failure (All Grades) | AE leading to dose interruption: Hydronephrosis (All Grades) | AE leading to dose interruption: Musculoskeletal stiffness (All Grades) | AE leading to dose interruption: Osteoarthritis (All Grades) | AE leading to dose interruption: Pathological fracture (All Grades) | AE leading to dose interruption: Peripheral swelling (All Grades) | AE leading to dose interruption: Renal injury (All Grades) | AE leading to dose interruption: Subdural hemorrhage (All Grades) | AE leading to dose interruption: Urethral stenosis (All Grades) | AE leading to dose interruption: Weight increased (All Grades) | AE leading to dose reduction: Aspartate aminotransferase or alanine aminotransferase increased (All Grades) | AE leading to dose reduction: Asthenia (All Grades) | AE leading to dose reduction: Lethargy (All Grades) | AE leading to dose reduction: Performance status decreased (All Grades) | AE leading to discontinuation: Alanine aminotransferase increased (Grade ≥3) | AE leading to discontinuation: Anxiety (Grade ≥3) | AE leading to discontinuation: Cardiac failure (Grade ≥3) | AE leading to discontinuation: Cognitive disorder (Grade ≥3) | AE leading to discontinuation: Dehydration (Grade ≥3) | AE leading to discontinuation: Dyspnea (Grade ≥3) | AE leading to discontinuation: Euphoric mood (Grade ≥3) | AE leading to discontinuation: Hot flush (Grade ≥3) | AE leading to discontinuation: Hypothermia (Grade ≥3) | AE leading to discontinuation: Intracranial hemorrhage (Grade ≥3)
9 (1.7) no. (%): AE leading to dose interruption: Pain (grouped term) (All Grades)
28 (5.3) no. (%): AE leading to dose reduction: Rash (grouped term) (All Grades)
3 (0.6) no. (%): AE leading to dose interruption: Asthenia (All Grades) | AE leading to dose interruption: Insomnia (All Grades) | AE leading to dose interruption: New cancer neoplasm (All Grades) | AE leading to dose interruption: Pyrexia (All Grades) | AE leading to dose interruption: Vomiting (All Grades) | AE of special interest: Seizure (grouped term) (All Grades)
104 (19.8) no. (%): Patients with treatment-emergent events leading to dose interruption (All Grades)
119 (22.7) no. (%): TEAE: Hot flush (All Grades)
54 (10.3) no. (%): TEAE: Weight increased (All Grades)
13 (2.5) no. (%): TEAE: Urinary retention (All Grades)
12 (2.3) no. (%): AE leading to discontinuation: Rash (grouped term) (All Grades)
47 (9.0) no. (%): TEAE: Constipation (All Grades)
48 (9.2) no. (%): TEAE: Anemia (All Grades)
56 (10.7) no. (%): TEAE: Pruritus (All Grades)
42 (8.0) no. (%): Patients with treatment-emergent adverse events leading to discontinuation (All Grades)
37 (7.1) no. (%): Patients with treatment-emergent adverse events leading to dose reduction (All Grades) | TEAE: Asthenia (All Grades)
